Experimental findings from PubChem BioAssay (NCI) are described below.

Values joined by “and” are separate entries in the source; they are usually repeats but may differ in a detail not shown here. Identical values can stand only once.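 Briefly, cells in 96-well plates were exposed to five compound concentrations for 48 h, and endpoints were estimated by linear interpolation. Abbreviation: GI50, concentration required for 50% inhibition of growth. TGI marks complete inhibition of growth.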

Common to all, as to experiment: NCI tumour cell line growth inhibition, 48 h
The subject of assay [1] is CCRF-CEM leukemia.
Assay [2] deals with COLO 205 colon.
The test system of assay [3] is HL-60(TB) leukemia.
Assay [4] relates to HOP-92 NSCLC.
Assay [5] concerns NCI-H226 lung.
For assay [6], the system named is NCI-H522 lung.
In assay [7] the test system is OVCAR-5 ovarian.
The subject of assay [8] is SF-539 CNS.
In assay [9] the test system is SK-MEL-28 melanoma.
Assay [10] concerns SW-620 colon.

`C=CCc1cc(OC)c2c(c1)C(O)CC(c1ccc(OC)c(OC)c1)O2` (stereo unspecified): the TGI in assay [1], in assay [2], in assay [3], in assay [4], in [5] and in [6] was > 100 µM in each case. Moreover, the TGI in assay [7], in [8], in [9] and in [10] was > 100 µM each time.
As for `Cc1cc(=O)[nH]c2cc3oc4ccccc4c3cc12`, the TGI is > 75.9 µM in assay [1]; > 100 µM in [2]; 59.3 µM in [3]; > 100 µM in assay [4]; > 100 µM in assay [5]; > 100 µM in [6]. The TGI in assay [7], in assay [8], in assay [9] and in assay [10] was > 100 µM in each case.
On to `CC1=C(C(=O)Nc2ccc(F)c(Cl)c2)C(c2ccc(Cl)cc2)NC(=O)N1` (stereo unspecified), for which the GI50 was 15.3 µM in assay [1]; 37.5 µM in assay [2]; 0.083 µM in [3]; 11.8 µM in assay [4]; 15.5 µM in assay [5]; 17.8 µM in [6]. Besides, the GI50 in assay [7] is 19.5 µM; in assay [8], 14 µM; in [9] it was 16.5 µM; in [10], 24.8 µM. The TGI in assay [1] is 38.8 µM; in assay [2], > 100 µM; in assay [3] it was 1.87 µM; in [4], 26.6 µM; in assay [5], 38.6 µM; in assay [6], 34.9 µM. Moreover, the TGI in assay [7] came out at 42.9 µM; in [8] it was 29.7 µM; in [9], 32.6 µM; in assay [10], 66 µM.
With `O=C1NNC(=O)c2ccccc2SSc2ccccc2C(=O)NNC(=O)c2ccccc2SSc2ccccc21`, the GI50 was 1.99 µM in [1]; > 100 µM in assay [4]; 3.43 µM in assay [6]; 2.87 µM in assay [8]; 23.1 µM in assay [9]; 6.81 µM in assay [10]. Further, the TGI in [1] was 35 µM and 11.8 µM; in [2], 50 µM; in assay [3], 23.8 µM; in assay [4] it was > 100 µM; in [5], > 50 µM; in [6], 50 µM and 14.5 µM. The TGI in assay [7] was 50 µM and 73.8 µM; in [8], 50 µM and > 100 µM; in assay [9] it was 50 µM and > 100 µM; in assay [10] it was 50 µM and > 100 µM.
Regarding `COc1ccc(/C=C\c2cc(OC)c3c(c2)OCO3)c(O)c1O`, the TGI turned out to be 14.3 µM in assay [1]; 45.1 µM in assay [2]; 7.72 µM in [3]; 16.1 µM in [4]; 45.9 µM in assay [5]; 3.53 µM in assay [6]. In addition, the TGI in assay [7] was determined as 55 µM; in assay [8], 4.57 µM; in assay [9], 24.1 µM; in [10], 26.1 µM.
As for `O=C1C2=C(SCCS2)C(=O)c2ccccc21`, the TGI in [1] was 4.2 µM; in assay [2], 2.96 µM; in assay [3], 6.77 µM; in assay [4] it was 3.05 µM; in assay [5] it was 3.57 µM; in assay [6], 3.17 µM. In addition, the TGI was determined as 3.23 µM in [7], 3.09 µM in assay [8], 3.26 µM in assay [9] and 3.68 µM in assay [10].
In the case of `COc1ccc2c(c1)C(=O)/C(=C/c1ccc(OCC(=O)Nc3nccs3)cc1)O2`, the GI50 in [1] was 0.183 µM; in assay [2] it was 0.979 µM; in assay [3], 0.187 µM; in assay [4] it was 0.161 µM; in assay [5], 12.8 µM; in [6] it was 0.191 µM. For the same compound, the GI50 in assay [7] was 1.79 µM; in assay [8], 0.184 µM; in [9], 12.7 µM; in [10], 2.88 µM. Moreover, the TGI in [2] amounted to 5.09 µM; in assay [3], 0.413 µM; in [4], 0.369 µM; in assay [5], 34.8 µM; in assay [6], 0.393 µM; in assay [7], 10.2 µM. Moreover, the TGI in [8] turned out to be 0.361 µM; in [9], 26.3 µM; in assay [10], 10.2 µM.
Turning to `NC(CSC(c1ccccc1)(c1ccccc1)c1ccc2c(c1)OCO2)C(=O)O` (stereo unspecified), the GI50 in [1] is 0.306 µM; in assay [2], 0.325 µM; in [3] it was 0.313 µM; in assay [4], 0.75 µM; in assay [5], 15.9 µM; in assay [6], 0.208 µM. For the same compound, the GI50 in assay [7] is 7.22 µM; in assay [8], 0.392 µM; in [9], 0.799 µM; in assay [10], 0.396 µM. Moreover, the TGI in assay [1] is > 41.5 µM; in [2], 1.15 µM; in assay [3] it was 0.836 µM; in [4], 36.9 µM; in [5], > 84.8 µM; in [6] it was 0.535 µM. Moreover, the TGI was > 100 µM in assay [7], > 41 µM in assay [8], 98.5 µM in [9] and > 100 µM in assay [10].
In the case of `O=C(/C=C/c1ccccc1Cl)c1ccc(Cl)c(Cl)c1`, the TGI in assay [1] was 81.8 µM; in assay [2], > 100 µM; in assay [3], 60.7 µM; in [4], 58.1 µM; in [5], > 100 µM; in assay [6], 31.1 µM. Besides, the TGI in assay [7] worked out at 32.8 µM; in assay [8], 33.1 µM; in assay [9] it was 40.4 µM; in assay [10], 28.3 µM.
Consider `CC(=O)[O][Hg][c]1c(N)c(C)cc(C)c1F`, for which the GI50 was 0.401 µM in [1]; 1.91 µM in [2]; 1.44 µM in [3]; 1.53 µM in assay [4]; 16.2 µM in assay [5]; 0.167 µM in assay [6]. Also, the GI50 in [7] was 1.95 µM; in assay [8], 1.57 µM; in assay [9], 1.37 µM; in assay [10], 1.44 µM. The TGI in assay [1] is > 24.3 µM; in assay [2], 3.53 µM; in [3] it was 5.17 µM; in assay [4], 2.92 µM; in assay [5], 44.5 µM; in assay [6], 0.344 µM. The TGI in assay [7] turned out to be 3.67 µM; in [8], 3.11 µM; in assay [9] it was 2.83 µM; in assay [10], 3.21 µM.
For the compound `CCCCCCCC(=O)SCC/C=C/[C@@H]1CC(=O)NCc2cccc(n2)C2=N[C@@](C)(CS2)C(=O)N[C@@H](C(C)C)C(=O)N1`, the GI50 in [1] is 1.47 µM; in assay [2] it was 0.468 µM; in [3], 0.509 µM; in assay [4], 0.481 µM; in assay [5], 7.19 µM; in assay [6], 0.12 µM. In addition, the GI50 was 0.771 µM in assay [7], 2.72 µM in assay [8], 1.02 µM in assay [9] and 6.33 µM in assay [10]. Moreover, the TGI in assay [1] is > 33.3 µM; in assay [2], 1.62 µM; in assay [3], > 33.3 µM; in assay [4] it was 9.31 µM; in assay [5], > 33.3 µM; in assay [6], 1.85 µM. Besides, the TGI in [7], in [8], in assay [9] and in assay [10] was > 33.3 µM throughout.
As to `C=C(CNCCO)[C@@H]1CC[C@]2(CO)CC[C@]3(C)[C@H](CC[C@@H]4[C@@]5(C)CCC(N)C(C)(C)[C@@H]5CC[C@]43C)[C@@H]12` (stereo partly specified), the GI50 is 2.04 µM in assay [1]; 1.73 µM in [2]; 1.89 µM in assay [3]; 1.29 µM in [4]; 11 µM in assay [5]; 1.93 µM in [6]. The GI50 in assay [7] is 5.08 µM; in assay [8], 1.75 µM; in [9] it was 1.96 µM; in assay [10] it was 1.89 µM. For the same compound, the TGI in [1] came out at 5.93 µM; in assay [2], 3.35 µM; in assay [3], 4.1 µM; in assay [4] it was 2.76 µM; in assay [5], 27.9 µM; in assay [6] it was 3.7 µM. The TGI in [7] is 18.1 µM; in assay [8], 3.21 µM; in assay [9], 3.6 µM; in assay [10], 3.75 µM.
Take `Cc1nc2c(nc1C)C(=O)c1ccccc1C2=O`: the TGI in assay [1] amounted to 46.9 µM; in [2], 5.57 µM; in [3], 13.7 µM; in assay [4], 45 µM; in [5] it was 13.3 µM; in [6], 10.7 µM. Moreover, the TGI in assay [7] is 9.62 µM; in assay [8], 11.2 µM; in [9], 4.76 µM; in assay [10] it was 10.1 µM.
Take `O=C1c2ccccc2C(=O)c2sc(Nc3cccc(Cl)c3)nc21`: the TGI in assay [1] is 3.89 µM; in [2], 7.68 µM; in [3] it was 0.444 µM; in assay [4], 9.1 µM; in assay [5], 6.25 µM; in [6], 3.09 µM. Further, the TGI in assay [7] turned out to be 4.78 µM; in [8] it was 3.44 µM; in assay [9], 3.34 µM; in assay [10], 2.26 µM. In addition, in [4], the GI50 was 1.82 µM.
